Laboratory results published in PMC10004777 (Molecules, 2023).

Columns and labels:
[1] = tested on: MCF-7 breast cancer cells; test: Cell viability (MTT) assay, MCF-7; format: cell-based; settings: 48 h, MTT
Procedure: MCF-7 is a commonly used tumor cell line.
(§1) The cell lines present in this study were obtained from Procell Life Science & Technology Co. Ltd. MCF-7, HepG2 and SJSA-1 cells were cultured in DMEM medium (DMEM, Gibco) supplemented with 10% fetal bovine serum (FBS, Gibco), 1% penicillin-streptomycin (Hyclone) at 37℃ in a humid environment with 5% CO2. HK-2 cells were cultured in DMEM/F12 (1:1) medium and placed in incubators in the same environment.
(§2) Cell viability was determined by MTT assay. MCF-7, HepG2, SJSA-1 and HK-2 cells (6 × 10^3 cells /well) were seeded in 96-well plates with serum-free medium for 24 h. […] After 48 or 72 h, 10 μL MTT (5 mg/mL, Beyotime) was added and incubated at 37 °C for 4 h. Then 100 μL of lysate was added. After complete dissolution of the crystal, the absorbance was measured at 540 nm and expressed as the average percentage of absorbance between treated and control cells. The value for control cells was set at 100%. Cell survival rate was calculated as the ratio of the absorbance of the cells and negative control after minus the blank absorbance respectively.

[2] = tested on: osteosarcoma cell line SJSA-1; test: Cell viability (MTT) assay, SJSA-1; format: cell-based; settings: 72 h, MTT
Procedure: (§3) To investigate the selectivity of these derivatives towards different tumor cell lines, we also selected HepG2 and osteosarcoma cell line SJSA-1 cells to evaluate the anti-proliferation activity of the derivatives. […] Except for compounds A2 and A11, the effects of other compounds on SJSA-1 were not strong.
as §1, §2

HepG2 cells = test: Cell viability (MTT) assay, HepG2; format: cell-based; settings: 48 h, MTT
Procedure: as §3, §1, §2

HK-2 cells = test: Cell viability (MTT) assay, HK-2 normal cells (cytotoxicity); format: cell-based; settings: HK-2 normal cells, 48 h, MTT
Procedure: as §1, §2

MDM2 protein = biological target: T1, MDM2 protein (Homo sapiens, UniProt Q00987); set-up: method as in PMID 22380771; settings: read-out: Ki (predicted affinity with MDM2 protein); virtual screening prediction; cited from earlier work
T1 construct: purchased Protintech (so in the source)

[3] = tested on: 95-D cells versus H1299 cells; set-up: method as in doi:10.13386/j.issn1002-0306.2015.11.030; settings: cited from earlier work

T1 sequence (Q00987 whole entry): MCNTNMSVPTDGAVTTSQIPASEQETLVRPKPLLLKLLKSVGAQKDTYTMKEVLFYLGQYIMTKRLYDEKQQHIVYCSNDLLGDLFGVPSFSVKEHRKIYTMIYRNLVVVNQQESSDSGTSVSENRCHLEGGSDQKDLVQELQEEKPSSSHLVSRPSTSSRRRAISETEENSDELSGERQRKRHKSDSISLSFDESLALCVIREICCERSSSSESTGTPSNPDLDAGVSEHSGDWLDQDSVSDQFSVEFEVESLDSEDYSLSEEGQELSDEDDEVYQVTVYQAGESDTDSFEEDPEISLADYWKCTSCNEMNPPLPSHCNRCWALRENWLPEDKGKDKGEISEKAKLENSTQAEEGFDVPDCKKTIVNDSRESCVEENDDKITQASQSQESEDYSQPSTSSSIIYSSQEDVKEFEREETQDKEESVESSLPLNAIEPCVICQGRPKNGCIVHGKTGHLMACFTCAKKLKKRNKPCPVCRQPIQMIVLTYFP

| Structure (SMILES) | Viability of Cells (% of Control) ([1]; MCF-7, 25 µM) | Viability of Cells (% of Control) ([1]; MCF-7, 50 µM) | Viability of Cells (% of Control) ([1]; MCF-7, 100 µM) | Viability of Cells (% of Control) ([2]; SJSA-1, 50 µM) | Viability of Cells (% of Control) ([2]; SJSA-1, 100 µM) | Viability of Cells (% of Control) (HepG2 cells; HepG2, 25 µM) | Viability of Cells (% of Control) (HepG2 cells; HepG2, 50 µM) | Viability of Cells (% of Control) (HK-2 cells; 50 µM) | Viability of Cells (% of Control) (HK-2 cells; 100 µM) | Ki (MDM2 protein) [nM] | sensitivity of 95-D cells (wild-type p53) relative to H1299 cells (no p53) [3] [times] |
| --- | --- | --- | --- | --- | --- | --- | --- | --- | --- | --- | --- |
| C[C@H](CC(=O)C[C@@H](C)[C@H]1C[C@H](O)[C@@]2(C)C3=C(C(=O)C[C@]12C)[C@@]1(C)CCC(=O)C(C)(C)[C@@H]1C[C@@H]3O)C(=O)O [GAA, Ganoderic acid A, reference compound] | 109.9 ± 2.1 % of Control | 86.2 ± 5.2 % of Control | 83.6 ± 9.4 % of Control | 73.5 ± 1.1 % of Control | 74.0 ± 4.0 % of Control | 83.0 ± 1.5 % of Control | 84.0 ± 0.1 % of Control | 117.8 ± 6.3 % of Control | 104.9 ± 7.6 % of Control | 147 |  |
| CC(=O)O[C@@H](C/C=C(\C)C(=O)O)[C@@H](C)[C@H]1C[C@H](OC(C)=O)[C@@]2(C)C3=CC[C@H]4C(C)(C)[C@H](OC(C)=O)CC[C@]4(C)C3=CC[C@]12C [ganoderic acid T] |  |  |  |  |  |  |  |  |  |  | 3.3 |
